# Assay results taken from patent US11236378B2 (priority 2015, dated 2022).
# System: HEK293T cells
# Details: human
structure (smiles),measurement,value
"COc1ncc(-c2ccc3nc(N)n(-c4ccc(N5CCOCC5)cc4)c3c2)cc1S(=O)(=O)Nc1ccccc1F [A1, 5-(2-amino-1-(4-(4-morpholinyl)phenyl)-1H-benzimidazol-6-yl)-N-(2-fluorophenyl)-2-methoxy-3-pyridinesulfonamide]",concentration that killed most of the cells,≥ 250 nM
